Results from US12653814B2, “Benzimidazolone-based cinnamamide derivative as TRPV1 antagonist and pharmaceutical composition for treatment or prevention of pain containing same as active ingredient” (JMACKEM CO., LTD, priority 2020, dated 2026).

What was measured:
human TRPV1 (hTRPV1) [1] = molecular target: T1, human TRPV1 (hTRPV1) (Homo sapiens, UniProt Q8NER1); test: Ca2+ influx assay, antagonism against capsaicin in hTRPV1-HEK recombinant cells; assay type: cell-based; settings: capsaicin 10 nM as activator, Fluo4-NW fluorescence, read-out: hTRPV1 IC50 [cap]
T1 construct: host or cells: HEK (PrecisION hTRPV1-HEK recombinant cell line)
T1 sequence (Q8NER1 whole entry): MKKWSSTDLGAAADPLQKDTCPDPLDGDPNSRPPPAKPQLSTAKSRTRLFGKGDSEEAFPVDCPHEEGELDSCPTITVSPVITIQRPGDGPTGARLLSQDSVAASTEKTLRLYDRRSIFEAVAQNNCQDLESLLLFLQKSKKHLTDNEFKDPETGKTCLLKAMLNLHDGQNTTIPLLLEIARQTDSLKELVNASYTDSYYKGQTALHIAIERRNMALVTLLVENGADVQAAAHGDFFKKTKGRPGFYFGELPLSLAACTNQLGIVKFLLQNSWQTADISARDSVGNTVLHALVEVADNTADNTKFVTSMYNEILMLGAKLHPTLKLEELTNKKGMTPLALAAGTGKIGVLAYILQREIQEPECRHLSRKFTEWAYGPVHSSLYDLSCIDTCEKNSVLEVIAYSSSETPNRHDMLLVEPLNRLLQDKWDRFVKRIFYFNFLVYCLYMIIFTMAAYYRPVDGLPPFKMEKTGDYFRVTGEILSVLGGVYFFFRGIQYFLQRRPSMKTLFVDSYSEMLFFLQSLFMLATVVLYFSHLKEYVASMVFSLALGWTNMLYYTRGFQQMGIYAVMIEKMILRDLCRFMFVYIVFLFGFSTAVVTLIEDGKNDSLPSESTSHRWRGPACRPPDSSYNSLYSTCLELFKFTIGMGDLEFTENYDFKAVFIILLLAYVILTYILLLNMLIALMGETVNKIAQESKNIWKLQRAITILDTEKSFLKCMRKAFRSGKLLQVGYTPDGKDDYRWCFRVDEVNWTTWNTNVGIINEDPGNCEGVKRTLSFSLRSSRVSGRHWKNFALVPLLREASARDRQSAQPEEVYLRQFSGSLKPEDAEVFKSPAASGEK

human TRPV1 (hTRPV1) [2] = molecular target: T1, human TRPV1 (hTRPV1); test: Evaluation of human pH inhibitory activity in hTRPV1-HEK recombinant cells; assay type: cell-based; settings: inhibition of activation at final pH 6.0, test substance 3 μM
Experimental: Evaluation of Human pH Inhibitory Activity
PrecisION™ hTRPV1-HEK recombinant cells (CYL3063) were purchased from Millipore and used. After culturing the above cells under the conditions of 37° C. and 5% CO2, the cells were inoculated in a 96-well plate at the density of 5×10^4 cells/well, followed by culture for 16 hours. Then, the medium was removed and 100 uL of a staining solution was put into each well, followed by culture for 30 minutes under the conditions of 37° C. and 5% CO2. After 30 minutes, all of the existing staining solution was removed and replaced with 100 uL of HBSS. Thereafter, the cells were acclimatized to room temperature for 15 minutes, and the test substances (example compounds and comparative example compounds of the present invention) were added to each well, followed by culture at room temperature for 15 minutes. Then, the final pH was adjusted to 6.0 using MES, and fluorescence was measured (ex485/em535). In the pH assay, the efficacy of the drug was evaluated using BCTC as a TRPV1 antagonist.

SMILES | IC50 (human TRPV1 (hTRPV1) [1]) [nM] | hTRPV1 pH (%, 3 μM) (human TRPV1 (hTRPV1) [2]) [%]
CCCCOc1nc(C(F)(F)F)ccc1/C=C/C(=O)Nc1cccc2[nH]c(=O)[nH]c12 [Example 8, (E)-3-(2-butoxy-6-(trifluoromethyl)pyridin-3-yl)-N-(2-oxo-2,3-dihydro-1H-benzo[d]imidazol-4-yl)acrylamide] | 27.3 | 81.24
CCCCCCOc1nc(C(F)(F)F)ccc1/C=C/C(=O)Nc1cccc2[nH]c(=O)[nH]c12 [Example 9, (E)-3-(2-(hexyloxy)-6-(trifluoromethyl)pyridin-3-yl)-N-(2-oxo-2,3-dihydro-1H-benzo[d]imidazol-4-yl)acrylamide] | > 50 | –
O=C(/C=C/c1ccc(C(F)(F)F)nc1OC1CCC1)Nc1cccc2[nH]c(=O)[nH]c12 [Example 11, (E)-3-(2-cyclobutoxy-6-(trifluoromethyl)pyridin-3-yl)-N-(2-oxo-2,3-dihydro-1H-benzo[d]imidazol-4-yl)acrylamide] | 37.8 | 88.23
CC(C)c1ccc(/C=C/C(=O)Nc2cccc3[nH]c(=O)[nH]c23)c(OCC2CC2)n1 [Example 19, (E)-3-(2-(cyclopropylmethoxy)-6-isopropylpyridin-3-yl)-N-(2-oxo-2,3-dihydro-1H-benzo[d]imidazol-4-yl)acrylamide] | 410 | –
O=C(/C=C/c1ccc(C(F)(F)F)nc1SCC1CC1)Nc1cccc2[nH]c(=O)[nH]c12 [Example 28, (E)-3-(2-((cyclopropylmethyl)thio)-6-(trifluoromethyl)pyridin-3-yl)-N-(2-oxo-2,3-dihydro-1H-benzo[d]imidazol-4-yl)acrylamide] | > 100 | –
O=C(/C=C/c1ccc(C(F)(F)F)nc1SC1CCCCC1)Nc1cccc2[nH]c(=O)[nH]c12 [Example 29, (E)-3-(2-(cyclohexylthio)-6-(trifluoromethyl)pyridin-3-yl)-N-(2-oxo-2,3-dihydro-1H-benzo[d]imidazol-4-yl)acrylamide] | > 100 | –
CC(C)c1cc(/C=C/C(=O)Nc2cccc3[nH]c(=O)[nH]c23)n(-c2cccc(Cl)c2)n1 [Example 51, (E)-3-(1-(3-chlorophenyl)-3-isopropyl-1H-pyrazol-5-yl)-N-(2-oxo-2,3-dihydro-1H-benzo[d]imidazol-4-yl)acrylamide] | > 160 | –
CC1(c2cc(/C=C/C(=O)Nc3cccc4[nH]c(=O)[nH]c34)n(-c3cccc(Cl)c3)n2)CC1 [Example 52, (E)-3-(1-(3-chlorophenyl)-3-(1-methylcyclopropyl)-1H-pyrazol-5-yl)-N-(2-oxo-2,3-dihydro-1H-benzo[d]imidazol-4-yl)acrylamide] | > 160 | –
CC(C)c1nc(-c2cccc(Cl)c2)c(/C=C/C(=O)Nc2cccc3[nH]c(=O)[nH]c23)s1 [Example 55, (E)-3-(4-(3-chlorophenyl)-2-isopropylthiazol-5-yl)-N-(2-oxo-2,3-dihydro-1H-benzo[d]imidazol-4-yl)acrylamide] | > 160 | –
CC(F)(F)c1cc(C2CC2C(=O)Nc2cccc3[nH]c(=O)[nH]c23)n(-c2cccc(Cl)c2)n1 (centres unmarked) [Example 64, 2-(1-(3-chlorophenyl)-3-(1,1-difluoroethyl)-1H-pyrazol-5-yl)-N-(2-oxo-2,3-dihydro-1H-benzo[d]imidazol-4-yl)cyclopropane-1-carboxamide] | > 160 | –
CC(C)c1cc(C2CC2C(=O)Nc2cccc3[nH]c(=O)[nH]c23)n(-c2cccc(Cl)c2)n1 (centres unmarked) [Example 65, 2-(1-(3-chlorophonyl)-3-isopropyl-1H-pyrazol-5-yl)-N-(2-oxo-2,3-dihydro-1H-benzo[d]imidazol-4-yl)cyclopropane-1-carboxamide] | > 160 | –
O=C(Nc1cccc2[nH]c(=O)[nH]c12)C1CC1c1cc(C2CC2)nn1-c1cccc(Cl)c1 (centres unmarked) [Example 66, 2-(1-(3-chlorophenyl)-3-cyclopropyl-1H-pyrazol-5-yl)-N-(2-oxo-2,3-dihydro-1H-benzo[d]imidazol-4-yl)cyclopropane-1-carboxamide] | > 160 | –
CC1(c2cc(C3CC3C(=O)Nc3cccc4[nH]c(=O)[nH]c34)n(-c3cccc(Cl)c3)n2)CC1 (centres unmarked) [Example 67, 2-(1-(3-chlorophenyl)-3-(1-methylcyclopropyl)-1H-pyrazol-5-yl)-N-(2-oxo-2,3-dihydro-1H-benzo[d]imidazol-4-yl)cyclopropane-1-carboxamide] | > 160 | –

Further compounds by falling IC50 (human TRPV1 (hTRPV1) [1]), results first:

IC50 (human TRPV1 (hTRPV1) [1]) [nM] | hTRPV1 pH (%, 3 μM) (human TRPV1 (hTRPV1) [2]) [%] | SMILES
217 | – | CC(C)(C)c1ccc(/C=C/C(=O)Nc2cccc3[nH]c(=O)[nH]c23)c(OCC2CC2)n1 [Example 23, (E)-3-(6-(tert-butyl)-2-(cyclopropylmethoxy)pyridin-3-yl)-N-(2-oxo-2,3-dihydro-1H-benzo[d]imidazol-4-yl)acrylamide]
202 | – | CC(C)(C)COc1nc(C(F)(F)F)ccc1/C=C/C(=O)Nc1cccc2[nH]c(=O)[nH]c12 [Example 15, (E)-3-(2-(neopentyloxy)-6-(trifluoromethyl)pyridin-3-yl)-N-(2-oxo-2,3-dihydro-1H-benzo[d]imidazol-4-yl)acrylamide]
178 | – | CC(C)(C)CCc1nc(C(F)(F)F)ccc1/C=C/C(=O)Nc1cccc2[nH]c(=O)[nH]c12 [Example 40, (E)-3-(2-(3,3-dimethylbutyl)-6-(trifluoromethyl)pyridin-3-yl)-N-(2-oxo-2,3-dihydro-1H-benzo[d]imidazol-4-yl)acrylamide]
139 | – | CC(C)(C)c1cc(C2CC2C(=O)Nc2cccc3[nH]c(=O)[nH]c23)n(-c2cccc(Cl)c2)n1 (centres unmarked) [Example 68, 2-(3-(tert-butyl)-1-(3-chlorophenyl)-1H-pyrazol-5-yl)-N-(2-oxo-2,3-dihydro-1H-benzo[d]imidazol-4-yl)cyclopropane-1-carboxamide]
123 | – | O=C(/C=C/c1ccc(C(F)(F)F)nc1C1CCCC1)Nc1cccc2[nH]c(=O)[nH]c12 [Example 41, (E)-3-(2-cyclopentyl-6-(trifluoromethyl)pyridin-3-yl)-N-(2-oxo-2,3-dihydro-1H-benzo[d]imidazol-4-yl)acrylamide]
117 | – | O=C(/C=C/c1ccc(C2CC2)nc1OCC1CC1)Nc1cccc2[nH]c(=O)[nH]c12 [Example 18, (E)-3-(6-cyclopropyl-2-(cyclopropylmethoxy)pyridin-3-yl)-N-(2-oxo-2,3-dihydro-1H-benzo[d]imidazol-4-yl)acrylamide]
103 | – | CC(C)(C)c1nc(-c2cccc(Cl)c2)c(/C=C/C(=O)Nc2cccc3[nH]c(=O)[nH]c23)s1 [Example 58, (E)-3-(2-(tert-butyl)-4-(3-chlorophenyl)thiazol-5-yl)-N-(2-oxo-2,3-dihydro-1H-benzo[d]imidazol-4-yl)acrylamide]
86 | 97.34 | CC1CC1COc1nc(C(F)(F)F)ccc1/C=C/C(=O)Nc1cccc2[nH]c(=O)[nH]c12 (centres unmarked) [Example 16, (E)-3-(2-((2-methylcyclopropyl)methoxy)-6-(trifluoromethyl)pyridin-3-yl)-N-(2-oxo-2,3-dihydro-1H-benzo[d]imidazol-4-yl)acrylamide]
37 | 78.62 | CC1CCN(c2nc(C(F)(F)F)ccc2/C=C/C(=O)Nc2cccc3[nH]c(=O)[nH]c23)CC1 [Example 1, (E)-3-(2-(4-methylpiperidin-1-yl)-6-(trifluoromethyl)pyridin-3-yl)-N-(2-oxo-2,3-dihydro-1H-benzo[d]imidazol-4-yl)acrylamide]
34.5 | 94.03 | O=C(/C=C/c1ccc(C(F)(F)F)nc1OCC(F)(F)F)Nc1cccc2[nH]c(=O)[nH]c12 [Example 14, (E)-N-(2-oxo-2,3-dihydro-1H-benzo[d]imidazol-4-yl)-3-(2-(2,2,2-trifluoroethoxy)-6-(trifluoromethyl)pyridin-3-yl)acrylamide]
31.5 | 81.25 | O=C(/C=C/c1ccc(C(F)(F)F)nc1OC1CCCC1)Nc1cccc2[nH]c(=O)[nH]c12 [Example 12, (E)-3-(2-(cyclopentyloxy)-6-(trifluoromethyl)pyridin-3-yl)-N-(2-oxo-2,3-dihydro-1H-benzo[d]imidazol-4-yl)acrylamide]
28.8 | 86.72 | CCC1CCN(c2nc(C(F)(F)F)ccc2/C=C/C(=O)Nc2cccc3[nH]c(=O)[nH]c23)CC1 [Example 2, (E)-3-(2-(4-ethylpiperidin-1-yl)-6-(trifluoromethyl)pyridin-3-yl)-N-(2-oxo-2,3-dihydro-1H-benzo[d]imidazol-4-yl)acrylamide]
23.3 | 89.87 | CCCN(CCC)c1nc(C(F)(F)F)ccc1/C=C/C(=O)Nc1cccc2[nH]c(=O)[nH]c12 [Example 7, (E)-3-(2-(dipropylamino)-6-(trifluoromethyl)pyridin-3-yl)-N-(2-oxo-2,3-dihydro-1H-benzo[d]imidazol-4-yl)acrylamide]
16.3 | 94.79 | O=C(/C=C/c1ccc(C(F)(F)F)nc1N1CCOCC1)Nc1cccc2[nH]c(=O)[nH]c12 [Example 5, (E)-3-(2-morpholino-6-(trifluoromethyl)pyridin-3-yl)-N-(2-oxo-2,3-dihydro-1H-benzo[d]imidazol-4-yl)acrylamide]
10.7 | 76.92 | CCN(CC)c1nc(C(F)(F)F)ccc1/C=C/C(=O)Nc1cccc2[nH]c(=O)[nH]c12 [Example 6, (E)-3-(2-(diethylamino)-6-(trifluoromethyl)pyridin-3-yl)-N-(2-oxo-2,3-dihydro-1H-benzo[d]imidazol-4-yl)acrylamide]
